Laboratory results as given in patent US7446091B2, “Methods and preparations for curing clinically ill patients” (Novo Nordisk A/S, priority 2000, dated 2008).

Tested on: mechanically ventilated, adult patients admitted to the intensive care unit (ICU)
Assay: Example 2: prospective, randomized, controlled study, mortality analysis
Format: in vivo, human
Text: All mechanically ventilated, adult patients admitted to the intensive care unit (ICU) were eligible for inclusion.
All mechanically ventilated, adult (age>18y) patients admitted to our 56-bed, mainly surgical, ICU from Feb. 2, 2000 onward were considered eligible for inclusion. […] Informed consent was obtained from the closest family member. The study protocol was approved by the Institutional Review Board of the Catholic University of Leuven School of Medicine.
Consecutive patients were randomly assigned to one of these two treatment groups using blinded envelopes, stratified according to type of critical illness diagnosed on admission [(a) neurological disease, cerebral trauma or surgery; (b) cardiac surgery; (c) thoracic surgery and/or respiratory insufficiency; (d) abdominal surgery/peritonitis; (e) vascular surgery; (f) multiple trauma or severe burns: (g) organ transplantation; (h) others, mainly extensive oncological procedures] and balanced with the use of permuted blocks of ten.
All patients were fed continuously, on admission with mainly intravenous glucose (200-300 g/24 h) and from the next day onward with a standardised feeding schedule aiming for a caloric content up to 20-30 non-protein Calories/kg/24 h and a balanced composition (0.13-0.26 g nitrogen/kg/24 h and 20%-40% of non-protein Calories as lipids) of either total parenteral, combined parenteral/enteral or full enteral feeding, the latter mode attempted as early as possible. Other comcomitant ICU therapy was left to the discretion of attending physicians.
In patients treated in ICU for more than one week, a weekly electromyography (EMG) was performed to screen for Critical Illness Polyneuropathy. EMGs were interpreted by the same electrophysiologist who was blinded for randomization. In case of ICU death, a post-mortem examination was performed to confirm the presumed cause of death.
The primary outcome measure was death from all causes during intensive care. Secondary outcome measures were in-hospital mortality, incidence of prolonged intensive care dependency and need for ICU re-admission, need for vital organ system support comprising mechanical ventilatory support, renal replacement therapy (continuous or intermittent hemofiltration or dialysis), inotropic or vasopressor support, incidence of critical illness polyneuropathy, the degree of inflammation, incidence of blood stream infections and use of antibiotics, transfusion requirements and incidence of hyperbilirubinemia. Furthermore, use of intensive care resources was analysed by cumulative TISS scores. In order to accurately and objectively assess duration of ICU stay, which is often influenced by non-patient related factors such as bed availability on regular wards, patients were defined ‘dischargable from ICU’ when they were no longer in need of vital organ system support and received at least ⅔rd of the caloric need through the normal enteral route or earlier when actually sent to a ward.
We hypothesized to detect a difference in mortality selectively in long-stay (>5 days) critically ill patients. Since prolonged ICU stay is not predictable at ICU admission, and since we aimed at treatment from admission onward, we chose to include all mechanically ventilated patients admitted to the ICU, without selection. We estimated that inclusion of 2500 admissions would be needed to rule out an absolute difference in mortality of ±5% in the long-stay cohort which would translate in an absolute risk reduction of ±2% for overall ICU mortality (2-sided alfa level of <0.05). […] All analyses were done on intention to treat basis.
Baseline and outcome variables were compared using Student's t-test, Chi-square test and Mann-Whitney-U test, as appropriate. Death odds ratios were calculated using multivariate logistic regression analysis.

## insulin
IIS
  Causes of death during intensive care - total no: cardiogenic shock: 10
  Causes of death during intensive care - total no: multiple organ failure with proven septic focus: 8
  Causes of death during intensive care - total no: multiple organ failure, no detectable septic focus: 14
  Causes of death during intensive care - total no: severe brain damage: 3
  ICU deaths among patients staying >5 days (%): (10.6%)
  ICU deaths among patients staying >5 days - total no.: 22
  ICU deaths among patients staying ≤5 days (%): (2.3%)
  ICU deaths among patients staying ≤5 days - total no.: 13
  ICU deaths, abdominal surgery/peritonitis (%): (13.3%)
  ICU deaths, abdominal surgery/peritonitis - total no: 6
  ICU deaths, cardiac surgery (%): (2%)
  ICU deaths, cardiac surgery - total no.: 10
  ICU deaths, multiple trauma or severe burns (%): (12.1%)
  ICU deaths, multiple trauma or severe burns - total no.: 4
  ICU deaths, neurological disease, cerebral trauma or surgery (%): (18.1%)
  ICU deaths, neurological disease, cerebral trauma or surgery - total no.: 6
  ICU deaths, other types of critical illness (%): (8.7%)
  ICU deaths, other types of critical illness - total no: 25
  ICU deaths, others (%): (0%)
  ICU deaths, others - total no: 0
  ICU deaths, thoracic surgery and/or respiratory insufficiency - total no.: 5
  ICU deaths, transplantation (%): (4.3%)
  ICU deaths, transplantation - total no: 2
  ICU deaths, vascular surgery (%): (6.6%)
  ICU deaths, vascular surgery - total no.: 2
  In-hospital deaths among patients staying >5 days in ICU (%): (16.8%)
  In-hospital deaths among patients staying >5 days in ICU - total no.: 35
  In-hospital deaths among patients staying ≤5 days in ICU (%): (3.6%)
  In-hospital deaths among patients staying ≤5 days in ICU - total no.: 20
  Mortality in bacteremic patients: 12.5%
IIS vs RIS
  ICU deaths among patients staying >5 days, NNT: 11
  ICU deaths among patients staying >5 days, RRR (%): 47%
  ICU deaths among patients staying ≤5 days, RRR (%): =
  ICU deaths, NNT to save one life: 29
  ICU deaths, RRR (%): 43%
  In-hospital deaths among patients staying >5 days in ICU, NNT: 11
  In-hospital deaths among patients staying >5 days in ICU, RRR (%): 36%
  In-hospital deaths among patients staying ≤5 days in ICU, RRR (%): =
  In-hospital deaths, NNT: 27
  In-hospital deaths, RRR (%): 34%
IIS vs RIS, ICU stay >5 days
  ICU mortality, absolute risk reduction in the prolonged critically ill cohort: 9.6%
IIS, N = 765
  ICU deaths - total no.: 35
  In-hospital deaths - total no.: 55
RIS
  Causes of death during intensive care - total no: cardiogenic shock: 7
  Causes of death during intensive care - total no: multiple organ failure with proven septic focus: 33
  Causes of death during intensive care - total no: multiple organ failure, no detectable septic focus: 18
  Causes of death during intensive care - total no: severe brain damage: 5
  ICU deaths among patients staying >5 days (%): (20.2%)
  ICU deaths among patients staying >5 days - total no.: 49
  ICU deaths among patients staying ≤5 days (%): (2.6%)
  ICU deaths among patients staying ≤5 days - total no.: 14
  ICU deaths, abdominal surgery/peritonitis (%): (15.5%)
  ICU deaths, abdominal surgery/peritonitis - total no: 9
  ICU deaths, cardiac surgery (%): (5%)
  ICU deaths, cardiac surgery - total no.: 25
  ICU deaths, multiple trauma or severe burns (%): (8.6%)
  ICU deaths, multiple trauma or severe burns - total no.: 3
  ICU deaths, neurological disease, cerebral trauma or surgery (%): (23.3%)
  ICU deaths, neurological disease, cerebral trauma or surgery - total no.: 7
  ICU deaths, other types of critical illness (%): (13.1%)
  ICU deaths, other types of critical illness - total no: 38
  ICU deaths, others (%): (17.1%)
  ICU deaths, others - total no: 6
  ICU deaths, thoracic surgery and/or respiratory insufficiency (%): (17.9%)
  ICU deaths, thoracic surgery and/or respiratory insufficiency - total no.: 10
  ICU deaths, transplantation (%): (2.3%)
  ICU deaths, transplantation - total no: 1
  ICU deaths, vascular surgery (%): (6.3%)
  ICU deaths, vascular surgery - total no.: 2
  In-hospital deaths among patients staying >5 days in ICU (%): (26.3%)
  In-hospital deaths among patients staying >5 days in ICU - total no.: 64
  In-hospital deaths among patients staying ≤5 days in ICU (%): (3.9%)
  In-hospital deaths among patients staying ≤5 days in ICU - total no.: 21
  Mortality in bacteremic patients: 29.5%
RIS, N = 783
  ICU deaths - total no.: 63
  In-hospital deaths - total no.: 85
RIS, insulin-receiving patients
  ICU mortality among the RIS patients actually receiving insulin: 12.4%
